Columns and labels:
[1] = tested on: S. aureus and S. epidermidis isolates; test: Semi-quantitative biofilm assay (crystal violet, OD570) after culturing for 24 h; format: cell-based; conditions: 24 h culture, OD570, FIG. 12B, p≤0.005
Protocol: 3 ml Trypticase Soy Broth was inoculated with a colony from an overnight plate. Pre-cultures were grown at 37° C. with shaking to mid-exponential phase (2-3 h), and then used to inoculate fresh TSB to a starting OD600 of 0.01. 200 μl aliquots of this suspension were then inoculated into wells of one full row of the test plate. The plate was then incubated in a FLUOstar OPTIMA microplate reader at 37° C., and the optical density of each well measured every hour over a 24 h period. After 24 h the suspension in each plate was removed. The plate itself was washed three times with phosphate buffered saline, pH 7.4 (PBS), air dried and stained with 150 μl crystal violet solution. The dye bound to any attached cells was solubilized by addition of 150 μl of 95% ethanol. Optical density was measured as absorbance at 570 nm using a FLUOstar OPTIMA microplate reader and biofilm positive defined as OD570 above 1. All S. aureus and S. epidermidis isolates were tested in triplicate in three independent experiments. Each plate also consisted of negative controls (wells without bacterial inoculation). Data was analyzed using unpaired t-tests or one-way ANOVA, and the level of significance set at p<0.05. The ability of the bacteria to form a biofilm in the presence of the ATX samples was determined after culturing for 24 h using a semi-quantitative biofilm assay.

S. epidermidis 1457 = test: Bacterial growth on coated 96 well plates, optical density over 24 h; format: cell-based; conditions: coated wells, 37° C., FIG. 12A
Protocol: The potential antibacterial properties of polymer based ATX samples were tested against Staphylococcus aureus MRSA252, S. aureus MSSA476 and S. epidermidis 1457. Using solvent casting method [J. Ghosh et al., Polymer, vol. 52, pp. […]], 96 well plates were coated with the following samples—ATX only, ATX+sebacic acid (SA), ATX+Hexadecanoic acid (HA) and ATX+sebacic acid+2% polyethylene glycol (PEG). Each sample coated 3 wells per row and the last row was left blank as a control.
3 ml Trypticase Soy Broth was inoculated with a colony from an overnight plate. Pre-cultures were grown at 37° C. with shaking to mid-exponential phase (2-3 h), and then used to inoculate fresh TSB to a starting OD600 of 0.01. 200 μl aliquots of this suspension were then inoculated into wells of one full row of the test plate. The plate was then incubated in a FLUOstar OPTIMA microplate reader at 37° C., and the optical density of each well measured every hour over a 24 h period. […]
Optical density was measured as absorbance at 570 nm using a FLUOstar OPTIMA microplate reader and biofilm positive defined as OD570 above 1. […] Data was analyzed using unpaired t-tests or one-way ANOVA, and the level of significance set at p<0.05. The ability of the bacteria to form a biofilm in the presence of the ATX samples was determined after culturing for 24 h using a semi-quantitative biofilm assay.

CC1=C(/C=C/C(C)=C/C=C/C(C)=C/C=C/C=C(C)/C=C/C=C(C)/C=C/C2=C(C)C(=O)[C@@H](O)CC2(C)C)C(C)(C)C[C@H](O)C1=O [ATX, 3,3′-dihydroxy-β,βcarotene-4,4′-dione]
biofilm formation on coated surface vs control [1]: inhibited the bacteria from forming biofilm
effect on growth of the bacteria (optical density) (S. epidermidis 1457): significant effect on inhibiting the growth
